Results from paper PMC10976043, “Function and Mechanism of Antiviral Wasp Venom Peptide Protopolybia-MP III and Its Derivatives against HSV-1” (Toxins, 2024).
Ends that are not written are not given here.

Assays:
[1] = system: human corneal epithelial cells (HCEC); test: CCK8 cytotoxicity assay, HCEC; assay type: cell-based; conditions: 40 μg/mL, 24 h
Protocol: Figure 2 Protopolybia-MP III inhibits HSV-1 replication in human cell lines. (A) Cytotoxicities of Protopolybia-MP III to A549 cells, HCEC, and SK-N-MC. Cells were treated with Protopolybia-MP III at different concentrations or PBS for 24 h, and then cytotoxicities were determined by the CCK8 assay. (B,C) Suppression of intracellular HSV-1 infection by Protopolybia-MP III in A549 cells, HCEC, and SK-N-MC. Cells were preincubated with Protopolybia-MP III at different concentrations or PBS for 1 h and then infected with HSV-1 at an MOI of 1. After 24 h, the cells were collected. Intracellular HSV-1 RNA was analyzed by qPCR (B), and intracellular HSV-1 ICP0 protein expression levels were analyzed by Western blotting (C). (D) Inhibition of Protopolybia-MP III on extracellular HSV-1 particles in A549 cells, HCEC, and SK-N-MC. Cells were treated with Protopolybia-MP III at different concentrations or PBS for 24 h, and then the supernatant was collected and evaluated in a plaque formation assay. * p < 0.05. ** p < 0.01. *** p < 0.001.
Cells were seeded in a 96-well plate (7000–10,000 cells per well) and cultured at 37 °C overnight. Peptides in a series of concentrations were added to the medium, and cells were then incubated at 37 °C for 24 h. […] Finally, the absorbance was measured at 450 nm using a microplate reader (BioTek, Winooski, VT, USA).

HSV-1 virion [2] = test: HSV-1 free virion infectivity assay, qPCR; assay type: cell-based, herpes simplex virus type 1; conditions: then Vero cells infected, 24 h
Protocol: (§1) Figure 5 Protopolybia-MP III destroys the integrity of HSV-1 free virions. (A) Schematic diagram for studying the effect of Protopolybia-MP III on HSV-1 free virion infectivity. (B) Effects of Protopolybia-MP III on HSV-1 free virion infectivity at different temperatures. HSV-1 (MOI = 1) and 20 μg/mL Protopolybia-MP III or PBS were coincubated at 4 °C, 22 °C, and 37 °C for 1 h, and then Vero cells were infected as described in (A). After 24 h, cells were collected, and intracellular HSV-1 RNA was analyzed by qPCR. (C) Effects of different concentrations of Protopolybia-MP III on HSV-1 free virion infectivity. HSV-1 (MOI = 1) and 1 or 10 μg/mL Protopolybia-MP III or PBS were coincubated at 37 °C for 1 h, and then Vero cells were infected as described in (A). After 24 h, cells were collected, and intracellular HSV-1 RNA was analyzed by qPCR. (D,E) The effect of Protopolybia-MP III on HSV-1 free virion integrity. HSV-1 and 20 μg/mL Protopolybia-MP III or PBS were coincubated at 37 °C for 1 h. Then, after centrifuging for 2 h at 40,000 rpm at 4 °C, the contents of HSV-1 gB in the supernatant and precipitate were detected by Western blotting (D). In addition, the structure of HSV-1 virions after incubation with Protopolybia-MP III was observed by electron microscopy. The red arrow points to a destroyed HSV-1 virion. *** p < 0.001.
Figure 7 Antiviral activity analysis of Protopolybia-MP III mutants. (A) Amino acid sequences of Protopolybia-MP III mutants. Identical amino acids among Protopolybia-MP I, Protopolybia-MP III, and its mutants are marked in blue, and different amino acids are marked in red. (B) Suppression of Protopolybia-MP I, Protopolybia-MP III, and its mutants on intracellular HSV-1 content. Cells were preincubated with 20 μg/mL peptides or PBS for 1 h and then infected with HSV-1 at an MOI of 1. After 24 h, the cells were collected. Intracellular HSV-1 ICP0 protein levels were analyzed by Western blotting. The ratios of HSV-1 ICP0 to GAPDH were calculated by ImageJ software. (C) Inhibition of HSV-1 free virion infectivity by Protopolybia-MP I, Protopolybia-MP III, and its mutants. HSV-1 (MOI = 1) and 5 μg/mL peptides or PBS were coincubated at 37 °C for 1 h, and the mixtures were then used to infect Vero cells. After 24 h, cells were collected, and intracellular HSV-1 RNA was analyzed by qPCR. ns, no significance. * p < 0.05. ** p < 0.01. *** p < 0.001.
Cells were collected and lysed using TRIzol reagent (Beyotime Biotechnology, Shanghai, China) to release the intracellular total RNA, followed by precipitation with isopropanol. The first-strand cDNA was reverse-transcribed by the HiScript III 1st Strand cDNA Synthesis Kit (+gDNA wiper) (Vazyme, Nanjing, China). The cDNA was quantitated by qPCR with primers using Taq Pro Universal SYBR qPCR Master Mix (Vazyme). The HSV-1 primers were 5′-[…]-3′ (sense) and 5′-[…]-3′ (antisense). The monkey GAPDH primers were 5′-[…]-3′ (sense) and 5′-[…]-3′ (antisense). The human GAPDH primers were 5′-[…]-3′ (sense) and 5′-[…]-3′ (antisense). qPCR experiments were performed on a Bio-Rad CFX96 Touch (Pleasanton, CA, USA) according to the manufacturer’s instructions.

HSV-1 virion [3] = test: Virion integrity assay (ultracentrifugation/gB Western blotting, electron microscopy); design: species or system herpes simplex virus type 1; conditions: 20 μg/mL with HSV-1 at 37 °C 1 h
Protocol: as §1
HSV-1 virions were coincubated with PBS or 20 μg/mL Protopolybia-MP III at 37 °C for 1 h. Then, the virions were separated by ultracentrifugation at 40,000 rpm at 4 °C for 2 h in a Beckman SW41 rotor (Beckman Coulter, Brea, CA, USA). The supernatant was collected and lyophilized using a vacuum freeze dryer (Labconco FreeZone6L, Kansas City, MO, USA). HSV-1 glycoprotein gB from both the precipitate and supernatant components were measured by Western blotting. In addition, after HSV-1 was coincubated with PBS or 20 μg/mL Protopolybia-MP III at 37 °C for 1 h, samples were placed on 200-mesh var/carbon-coated copper grids by dipping the grids into the virion sample solutions. […]

[4] = ultracentrifugation 40,000 rpm 2 h 4 °C, Western blotting

In the case of “INWLKLGKAVIDAL-NH2 [Protopolybia-MP III]”, the “cytotoxicity to HCEC” value [1] is reported as “almost nontoxic”, the HSV-1 virions inactivated (HSV-1 virion [2]; 1 μg/mL coincubated with HSV-1 (MOI 1) at 37 °C for 1 h) is reported as 51% and the HSV-1 virions inactivated (HSV-1 virion [2]; 10 μg/mL coincubated with HSV-1 (MOI 1) at 37 °C for 1 h) is reported as 99%. The “inhibition rate of HSV-1 virion infectivity” value (HSV-1 virion [2]; 20 μg/mL coincubated with HSV-1 (MOI 1) at 4 °C for 1 h) was “above 99%”, the “inhibition rate of HSV-1 virion infectivity” value (HSV-1 virion [2]; 20 μg/mL coincubated with HSV-1 (MOI 1) at 22 °C for 1 h) was “above 99%” and the “inhibition rate of HSV-1 virion infectivity” value (HSV-1 virion [2]; 20 μg/mL coincubated with HSV-1 (MOI 1) at 37 °C for 1 h) was “above 99%”. The “inhibition rate of HSV-1 free virion infectivity” value (HSV-1 virion [2]; mutant comparison (Figure 7C): 5 μg/mL coincubated with HSV-1 (MOI 1) at 37 °C for 1 h) was 97.3%, the “HSV-1 virion structure by electron microscopy” value (HSV-1 virion [3]; negative staining) was “destroyed” and the “gB content in the precipitate compared with PBS treatment” value (HSV-1 virion [3]; [4]) was “significantly reduced”. The “gB content in the supernatant compared with PBS treatment” value (HSV-1 virion [3]; [4]) was “increased”.
